The results in this text go back to patent publication US20120295907A1, “INSECTICIDAL COMPOUNDS” (SYNGENTA CROP PROTECTION, LLC, priority 2009, published 2012).

Assay type in all cases: in vivo
One experiment deals with Spodoptera littoralis. Briefly: Spodoptera littoralis (Egyptian Cotton Leafworm) cotton leaf disc spray test. The following applies: foliar, 72 h, 200 ppm spray on cotton leaf discs, L1 larvae, mortality, feeding behavior, growth regulation 3 DAT.
For the next experiment, the system named is Heliothis virescens. Briefly: Heliothis virescens (Tobacco Budworm) egg test on artificial diet. The following applies: 96 h, 200 ppm (concentration in well 18 ppm), eggs 0-24 h old on artificial diet, 4 days, egg mortality, larval mortality, growth regulation.
Another experiment deals with Plutella xylostella. Briefly: Plutella xylostella (Diamond Back Moth) artificial diet MTP test. Conditions: 144 h, 200 ppm (concentration in well 18 ppm), L2 larvae, 6 days, larval mortality, growth regulation.

In general, pest or weed control refers to how far the test organism was held down. A high value points to a strong effect. In the case of `CCc1cc(C(F)(C(F)(F)F)C(F)(F)C(F)(F)F)cc(C)c1NC(=O)c1cccc(NC(=O)c2ccc(Cl)s2)c1OC` (stereo not shown) [A21], the pest or weed control at 200 ppm in the experiment on Spodoptera littoralis, with Heliothis virescens and in the experiment with Plutella xylostella was no less than 80% in each case.

In the case of `COc1c(NC(=O)c2cc(Cl)ccc2F)cccc1C(=O)Nc1c(Cl)cc(C(F)(C(F)(F)F)C(F)(F)C(F)(F)F)cc1Br` (stereo not shown) [B10], the pest or weed control at 200 ppm in the experiment on Spodoptera littoralis, with Heliothis virescens and with Plutella xylostella was no less than 80% each time.

For the compound `COc1c(NC(=O)c2ccco2)cccc1C(=O)Nc1c(Cl)cc(C(F)(C(F)(F)F)C(F)(F)C(F)(F)F)cc1Br` (stereo not shown) [B12], the pest or weed control at 200 ppm in the experiment on Spodoptera littoralis, in the experiment with Heliothis virescens and with Plutella xylostella was no less than 80% throughout.

Regarding `COc1c(NC(=O)c2ccccc2OC(F)(F)F)cccc1C(=O)Nc1c(Cl)cc(C(F)(C(F)(F)F)C(F)(F)C(F)(F)F)cc1Br` (stereo not shown) [B16], the pest or weed control at 200 ppm in the experiment with Spodoptera littoralis and in the experiment with Plutella xylostella was no less than 80% throughout.

Take `COc1ccccc1C(=O)Nc1cccc(C(=O)Nc2c(Cl)cc(C(F)(C(F)(F)F)C(F)(F)C(F)(F)F)cc2Br)c1OC` (stereo not shown) [B17]: the pest or weed control at 200 ppm in the experiment on Spodoptera littoralis and in the experiment on Heliothis virescens was no less than 80% in each case.

Take `COc1c(NC(=O)c2cc(C(F)(F)F)ccc2F)cccc1C(=O)Nc1c(Cl)cc(C(F)(C(F)(F)F)C(F)(F)C(F)(F)F)cc1Br` (stereo not shown) [B24]: the pest or weed control at 200 ppm with Spodoptera littoralis was no less than 80%.

As for `COc1c(NC(=O)c2ccc(-c3csnn3)cc2)cccc1C(=O)Nc1c(Cl)cc(C(F)(C(F)(F)F)C(F)(F)C(F)(F)F)cc1Br` (stereo not shown) [B31], the pest or weed control at 200 ppm with Spodoptera littoralis, with Heliothis virescens and with Plutella xylostella was no less than 80% throughout.

On to `COc1c(NC(=O)c2csnn2)cccc1C(=O)Nc1c(Cl)cc(C(F)(C(F)(F)F)C(F)(F)C(F)(F)F)cc1Br` (stereo not shown) [B39], for which the pest or weed control at 200 ppm in the experiment on Spodoptera littoralis, in the experiment with Heliothis virescens and with Plutella xylostella was no less than 80% each time.

`COc1c(NC(=O)c2ccc(-c3ccccn3)s2)cccc1C(=O)Nc1c(Cl)cc(C(F)(C(F)(F)F)C(F)(F)C(F)(F)F)cc1Br` (stereo not shown) [B48]: the pest or weed control at 200 ppm in the experiment with Spodoptera littoralis, in the experiment on Heliothis virescens and in the experiment with Plutella xylostella was no less than 80% throughout.

Compound `COc1c(NC(=O)c2sccc2Br)cccc1C(=O)Nc1c(Cl)cc(C(F)(C(F)(F)F)C(F)(F)C(F)(F)F)cc1Br` (stereo not shown) [B57] displayed a pest or weed control at 200 ppm in the experiment on Plutella xylostella of no less than 80%.

As to `COc1c(NC(=O)c2cc(Cl)cc(I)c2)cccc1C(=O)Nc1c(Cl)cc(C(F)(C(F)(F)F)C(F)(F)C(F)(F)F)cc1Br` (stereo not shown) [B68], the pest or weed control at 200 ppm in the experiment on Spodoptera littoralis and with Heliothis virescens was no less than 80% in each case.

In the case of `COc1c(NC(=O)c2cc(Cl)cc(C(F)(F)F)c2)cccc1C(=O)Nc1c(Cl)cc(C(F)(C(F)(F)F)C(F)(F)C(F)(F)F)cc1Br` (stereo not shown) [B70], the pest or weed control at 200 ppm with Spodoptera littoralis and in the experiment on Heliothis virescens was no less than 80% throughout.

In the case of `COc1c(NC(=O)c2ncccn2)cccc1C(=O)Nc1c(Cl)cc(C(F)(C(F)(F)F)C(F)(F)C(F)(F)F)cc1Br` (stereo not shown) [B71], the pest or weed control at 200 ppm in the experiment with Spodoptera littoralis and in the experiment with Plutella xylostella was no less than 80% each time.

Turning to `COc1c(NC(=O)c2ccc(F)c([N+](=O)[O-])c2)cccc1C(=O)Nc1c(Cl)cc(C(F)(C(F)(F)F)C(F)(F)C(F)(F)F)cc1Br` (stereo not shown) [B77], the pest or weed control at 200 ppm in the experiment with Spodoptera littoralis, in the experiment on Heliothis virescens and in the experiment with Plutella xylostella was no less than 80% each time.

Regarding `COc1c(NC(=O)c2sccc2C)cccc1C(=O)Nc1c(Cl)cc(C(F)(C(F)(F)F)C(F)(F)C(F)(F)F)cc1Br` (stereo not shown) [B88], the pest or weed control at 200 ppm in the experiment with Spodoptera littoralis, in the experiment with Heliothis virescens and with Plutella xylostella was no less than 80% in each case.

With `COc1c(NC(=O)c2ocnc2C)cccc1C(=O)Nc1c(Cl)cc(C(F)(C(F)(F)F)C(F)(F)C(F)(F)F)cc1Br` (stereo not shown) [B94], the pest or weed control at 200 ppm with Spodoptera littoralis, in the experiment on Heliothis virescens and in the experiment with Plutella xylostella was no less than 80% throughout.

As for `COCc1nc(C)c(C(=O)Nc2cccc(C(=O)Nc3c(Cl)cc(C(F)(C(F)(F)F)C(F)(F)C(F)(F)F)cc3Br)c2OC)s1` (stereo not shown) [B95], the pest or weed control at 200 ppm in the experiment on Spodoptera littoralis, with Heliothis virescens and in the experiment with Plutella xylostella was no less than 80% each time.

Take `COc1c(NC(=O)c2cc([N+](=O)[O-])c(Cl)cc2F)cccc1C(=O)Nc1c(Cl)cc(C(F)(C(F)(F)F)C(F)(F)C(F)(F)F)cc1Br` (stereo not shown) [B102]: the pest or weed control at 200 ppm in the experiment with Spodoptera littoralis, in the experiment with Heliothis virescens and in the experiment on Plutella xylostella was no less than 80% in each case.

Take `COc1c(NC(=O)c2sc(Cl)nc2C)cccc1C(=O)Nc1c(Cl)cc(C(F)(C(F)(F)F)C(F)(F)C(F)(F)F)cc1Br` (stereo not shown) [B105]: the pest or weed control at 200 ppm in the experiment with Spodoptera littoralis and with Plutella xylostella was no less than 80% throughout.

With `COc1c(NC(=O)c2ccc(S(C)(=O)=O)c(OC)c2Cl)cccc1C(=O)Nc1c(Cl)cc(C(F)(C(F)(F)F)C(F)(F)C(F)(F)F)cc1Br` (stereo not shown) [B114], the pest or weed control at 200 ppm in the experiment on Spodoptera littoralis, in the experiment on Heliothis virescens and in the experiment on Plutella xylostella was no less than 80% each time.

Consider `COc1c(NC(=O)c2ncc(C(F)(F)F)cc2Cl)cccc1C(=O)Nc1c(Cl)cc(C(F)(C(F)(F)F)C(F)(F)C(F)(F)F)cc1Br` (stereo not shown) [B141], for which the pest or weed control at 200 ppm in the experiment with Spodoptera littoralis, with Heliothis virescens and with Plutella xylostella was no less than 80% throughout.

`COc1c(NC(=O)c2c(C)nn(C)c2Cl)cccc1C(=O)Nc1c(Cl)cc(C(F)(C(F)(F)F)C(F)(F)C(F)(F)F)cc1Br` (stereo not shown) [B142] had a pest or weed control at 200 ppm with Spodoptera littoralis of no less than 80%.

For `COc1c(NC(=O)c2csc(Cl)c2OC)cccc1C(=O)Nc1c(Cl)cc(C(F)(C(F)(F)F)C(F)(F)C(F)(F)F)cc1Br` (stereo not shown) [B147], in the experiment with Spodoptera littoralis, the pest or weed control at 200 ppm is no less than 80%.

As to `COc1c(NC(=O)c2cc([N+](=O)[O-])ccc2F)cccc1C(=O)Nc1c(Cl)cc(C(F)(C(F)(F)F)C(F)(F)C(F)(F)F)cc1Br` (stereo not shown) [B148], the pest or weed control at 200 ppm with Spodoptera littoralis, in the experiment on Heliothis virescens and with Plutella xylostella was no less than 80% in each case.

Turning to `COc1c(NC(=O)c2cn(C)nc2C(F)(F)F)cccc1C(=O)Nc1c(Cl)cc(C(F)(C(F)(F)F)C(F)(F)C(F)(F)F)cc1Br` (stereo not shown) [B152], the pest or weed control at 200 ppm with Spodoptera littoralis, in the experiment with Heliothis virescens and with Plutella xylostella was no less than 80% throughout.

As to `COc1c(NC(=O)c2c(C)noc2C)cccc1C(=O)Nc1c(Cl)cc(C(F)(C(F)(F)F)C(F)(F)C(F)(F)F)cc1Br` (stereo not shown) [B157], the pest or weed control at 200 ppm in the experiment on Spodoptera littoralis and in the experiment with Heliothis virescens was no less than 80% throughout.

With `COc1c(NC(=O)c2cc(Cl)cc(Cl)c2O)cccc1C(=O)Nc1c(Cl)cc(C(F)(C(F)(F)F)C(F)(F)C(F)(F)F)cc1Br` (stereo not shown) [B160], the pest or weed control at 200 ppm with Plutella xylostella was no less than 80%.

As to `COc1cccc(OC)c1C(=O)Nc1cccc(C(=O)Nc2c(Cl)cc(C(F)(C(F)(F)F)C(F)(F)C(F)(F)F)cc2Br)c1OC` (stereo not shown) [B164], the pest or weed control at 200 ppm with Plutella xylostella was no less than 80%.

Consider `COc1c(NC(=O)c2ccc(C)cc2Cl)cccc1C(=O)Nc1c(Cl)cc(C(F)(C(F)(F)F)C(F)(F)C(F)(F)F)cc1Br` (stereo not shown) [B182], for which the pest or weed control at 200 ppm with Spodoptera littoralis, with Heliothis virescens and with Plutella xylostella was no less than 80% throughout.

`COc1c(NC(=O)c2cc(Cl)sc2Cl)cccc1C(=O)Nc1c(Cl)cc(C(F)(C(F)(F)F)C(F)(F)C(F)(F)F)cc1Br` (stereo not shown) [B186] yielded a pest or weed control at 200 ppm in the experiment on Spodoptera littoralis of no less than 80%.

`COc1c(NC(=O)c2ncccc2C(F)(F)F)cccc1C(=O)Nc1c(Cl)cc(C(F)(C(F)(F)F)C(F)(F)C(F)(F)F)cc1Br` (stereo not shown) [B188]: the pest or weed control at 200 ppm with Spodoptera littoralis and with Heliothis virescens was no less than 80% throughout.

With `COc1c(NC(=O)c2ccccc2OC(F)(F)F)cccc1C(=O)Nc1c(Cl)cc(C(F)(C(F)(F)F)C(F)(F)C(F)(F)F)cc1Cl` (stereo not shown) [C16], the pest or weed control at 200 ppm in the experiment on Heliothis virescens was no less than 80%.

Turning to `COc1ccccc1C(=O)Nc1cccc(C(=O)Nc2c(Cl)cc(C(F)(C(F)(F)F)C(F)(F)C(F)(F)F)cc2Cl)c1OC` (stereo not shown) [C17], the pest or weed control at 200 ppm with Heliothis virescens is no less than 80%.

Turning to `COc1c(NC(=O)c2ccco2)cccc1C(=O)Nc1c(Cl)cc(C(F)(C(F)(F)F)C(F)(F)F)cc1Cl` [E10], the pest or weed control at 200 ppm with Spodoptera littoralis, in the experiment with Heliothis virescens and with Plutella xylostella was no less than 80% in each case.

Consider `COc1c(NC(=O)c2ccccc2OC(F)(F)F)cccc1C(=O)Nc1c(Cl)cc(C(F)(C(F)(F)F)C(F)(F)F)cc1Cl` [E14], for which the pest or weed control at 200 ppm with Spodoptera littoralis, in the experiment with Heliothis virescens and in the experiment on Plutella xylostella was no less than 80% in each case.

For the compound `COc1ccccc1C(=O)Nc1cccc(C(=O)Nc2c(Cl)cc(C(F)(C(F)(F)F)C(F)(F)F)cc2Cl)c1OC` [E15], the pest or weed control at 200 ppm with Spodoptera littoralis, in the experiment on Heliothis virescens and in the experiment on Plutella xylostella was no less than 80% in each case.

Turning to `COc1c(NC(=O)c2ccccc2C)cccc1C(=O)Nc1c(C)cc(C(F)(C(F)(F)F)C(F)(F)C(F)(F)F)cc1C` (stereo not shown) [F2], the pest or weed control at 200 ppm in the experiment with Spodoptera littoralis, in the experiment with Heliothis virescens and in the experiment with Plutella xylostella was no less than 80% each time.

In the case of `COc1c(NC(=O)c2ccco2)cccc1C(=O)Nc1c(C)cc(C(F)(C(F)(F)F)C(F)(F)C(F)(F)F)cc1C` (stereo not shown) [F4], the pest or weed control at 200 ppm in the experiment on Spodoptera littoralis, in the experiment on Heliothis virescens and in the experiment with Plutella xylostella was no less than 80% in each case.

In turn, `COc1c(NC(=O)c2cccc(C)c2C)cccc1C(=O)Nc1c(C)cc(C(F)(C(F)(F)F)C(F)(F)C(F)(F)F)cc1C` (stereo not shown) [F11] came in with a pest or weed control at 200 ppm with Plutella xylostella of no less than 80%.

As to `COc1c(NC(=O)c2ccc(Cl)cc2F)cccc1C(=O)Nc1c(C)cc(C(F)(C(F)(F)F)C(F)(F)C(F)(F)F)cc1C` (stereo not shown) [F13], the pest or weed control at 200 ppm in the experiment on Spodoptera littoralis and in the experiment with Heliothis virescens was no less than 80% each time.
